Test results published in US6638966B2 (University of Iowa Research Foundation, priority 2000, dated 2003).

Key:
[1] = Anesthetic effect compared with melatonin; conditions: in vivo
rats [2] = assay: Cumulative i.v. doses: indices of anesthesia in rats (righting reflex, grip strength, eyelash reflex, paw withdrawal threshold); type: in vivo, rat; conditions: for estimated ED95 (and 95% CI) for loss of righting reflex: cumulative i.v. injection of divided doses; for effect on righting reflex, grip strength and eyelash reflex: three cumulative i.v. doses about 1 min apart: 6.67 mg/kg thiopental, 3.3 mg/kg propofol, 70 mg/kg melatonin
Experimental: (§1) After the final cumulative dose, measurements of anesthesia end-points were made at fixed intervals for an additional 20 minutes. […] Measurements of anesthesia end-points were made in these rats at fixed intervals for 20 minutes. Righting reflex was scored on a four-point scale (1=immediate/brisk, both feet under the rat; 2=complete, but slower than normal; 3=slow, feet not placed under body; and 4=absent). The threshold pressure (mm Hg) at which the rat withdrew or vocalized after pinch of one hindpaw was measured. For paw pinch, a subminiature, very low profile load cell Omega part number LCKD-1KG, measurement range of 0-1 kg) (OMEGA Engineering, INC., Stamford, Conn.) was used to measure the amount of pressure applied to the rat's paw. The action of compressing the load cell between the faces of the sponge clamp assembly results in a change in impedance within the load cell, and this in turn, was then converted to mm Hg pressure by the monitor. The presence or absence of eyelash reflex was noted on a three-point scale (1=normal, 2=weak; and 3=absent). The strength of grip by the forepaws was determined on a four-point scale (0=absent, 1=weak, 2=moderate and 3=strong).
(§2) Thiopental was purchased from Abbott Laboratories (Northern Chicago, Ill.). Propofol was purchased from Zeneca Pharmaceuticals (Wilmington, Del.). […] Thiopental and propofol were dissolved in saline and Intralipid™ respectively. […] For the bolus injections, the volume of drug injected ranged from 0.6 to 0.75 ml.

rats [3] = conditions: rat, in vivo, iv
rats [4] = assay: Single bolus i.v. injection: time course of indices of anesthesia in rats; type: in vivo, rat; conditions: for time for which loss of righting reflex and grip strength was maximal: single i.v. bolus: 10 mg/kg propofol; for time for which loss of righting reflex and grip strength was maximal / effect on paw withdrawal threshold / effect on righting reflex and grip strength: 275 mg/kg melatonin; for effect on paw withdrawal threshold / effect on righting reflex and grip strength / time by which loss of righting reflex and grip strength resolved: single i.v. bolus: 20 mg/kg thiopental, 10 mg/kg propofol; for time by which loss of righting reflex and grip strength resolved: 275 mg/kg melatonin (near baseline values)
Experimental: as §1, §2

patients = conditions: low-level doses sublingually, British Journal of Anesthesia 82(6):875-80(1999); cited from earlier work
male Sprague-Dawley rats = assay: Anesthetic effect of melatonin given through a jugular catheter to rats (Intralipid and cyclodextrin preparations); type: in vivo, rat; conditions: for anesthetic effect (righting reflex) / anesthetic effect (righting reflex, eyelash reflex, hind paw pressure): 50 mg/ml
Experimental: All experiments were carried out in male Sprague-Dawley rats (300-350 g). Rats were maintained on a 12 hour light/12 hour dark cycle with free access to food and water. All surgical procedures were performed under sterile conditions (skin preparation, sterile filed drape, gloves, mask, etc.). All instruments and materials were ethylene oxide sterilized. Non-fasting adult male Sprague Dawley rats (˜300 gm) were anesthetized with halothane in oxygen and weighed. The hair over the ventral neck and over the back (between the scapulae) was removed with an electric razor. In the supine position the ventral neck was washed with povidone-iodine, followed by a 3-cm skin incision, just left of mid-line. All bleeding points were cauterized. Both the left jugular vein and left common carotid artery were isolated via blunt dissection. The left jugular vein was cannulated with a heparinized (20 U/ml) saline-filled silastic catheter (0.012-in ID, 0.025-in OD) advanced ˜3-cm into the right atrium. The jugular catheter was secured to the vein with 4-0 silk at the point of insertion, as well as at the rostral jugular ligature. After implantation of intravascular catheters, rats were housed in individual stainless steel cages. […] Crystalline Melatonin powder was obtained from Sigma (Sigma Chemical Co. St. Louis, Mo.).

[5] = Solubility of melatonin in 1-methyl-2-pyrrolidinone/propylene glycol/water solvent; type: physicochemical; conditions: solvent: 1 volume 1-methyl-2-pyrrolidinone, 1 volume propylene glycol, 2 volumes water
From the text: The volume ratios here expressed are preferred but generally can be within the range of 25% or less by volume of 1-methyl-2-pyrrolidinone.

[6] = Rat 1, 315 mg/kg, in 40% cyclodextrin
[7] = Rat 2, 374 mg/kg, in 40% cyclodextrin

In the case of COc1ccc2[nH]c(C(F)(F)F)c(CCNC(C)=O)c2c1 [2-trifluoromethylmelatonin], the “anesthetic effect relative to melatonin” value [1] is reported as “substantially more active in anesthetic effect than melatonin itself”.

For COc1ccc2[nH]cc(CCNC(C)=O)c2c1 [melatonin, N-acetyl-5-methoxytryptamine], the “effect on paw withdrawal threshold” value (rats [2]; cumulative i.v. doses of 70 mg/kg) was “dose-dependently increased paw withdrawal threshold”, the “estimated ED95 (and 95% CI) for loss of righting reflex” value (from here on “estimated ED95 (and 95% CI) for loss”) (rats [2]) was 312 (205-476) mg/kg and the “doses at which the increase in paw withdrawal threshold was apparent” value (rats [2]; i.v.) was ≥ 140 mg/kg. For the same compound, the “effect on righting reflex, grip strength and eyelash reflex” value (shortened to “effect … grip strength and eyelash reflex”) (rats [2]) was “progressive loss of righting reflex and grip strength, but did not appreciably blunt the eyelash reflex”, the toxic side effects (rats [3]) was “without causing toxic side effects” and the “time for which the increase in paw withdrawal threshold persisted” value (rats [4]; single i.v. bolus 275 mg/kg) was “at least 20 min”. The “time for which loss of righting reflex and grip strength was maximal” value (rats [4]) was 5 min, the “effect on paw withdrawal threshold” value (rats [4]) was “increased paw withdrawal threshold as compared to vehicle” and the “effect on righting reflex and grip strength” value (rats [4]) was “immediate loss of righting reflex and grip strength”. For the same compound, the “time by which loss of righting reflex and grip strength resolved” value (shortened to “time by which loss”) (rats [4]) was ≤ 15 min, the “anxiety and sedation before operation” value (patients) was “significant decrease in anxiety levels and an increase in levels of sedation before operation” and the “anesthetic effect (righting reflex)” value (male Sprague-Dawley rats; Rat 1, 250 mg/kg followed about 1 minute later by 65 mg/kg, Intralipid + Ringer's Lactate) was “very drugged but did not lose righting reflex”. For the same compound, the “anesthetic effect (righting reflex)” value (male Sprague-Dawley rats; Rat 1, 315 mg/kg, cyclodextrin 40% + Intralipid) was “moves slowly but no loss of righting reflex”, the “anesthetic effect (ptosis, eye blink, paw pinch)” value (male Sprague-Dawley rats; [6]) was “ptosis, loss of eye blink response and loss of paw pinch response to a pressure of 60 mmHg” and the “time for which the righting reflex was lost” value (male Sprague-Dawley rats; [6]) was 27 min. The “anesthetic effect (righting reflex, eyelash reflex, hind paw pressure)” value (male Sprague-Dawley rats; Rat 2, 250 mg/kg, Intralipid + Ringer's Lactate) was “loss of righting and eyelash reflexes and inability to pull his hind paw in response to pressure applied to it”, the “anesthetic effect (ptosis, eye blink)” value (male Sprague-Dawley rats; [7]) was “ptosis and loss of eye blink response” and the “time for which the righting reflex was lost” value (male Sprague-Dawley rats; [7]) was 15 min. The paw pinch response (male Sprague-Dawley rats; Rat 2, 374 mg/kg, in 40% cyclodextrin, pressure of 60 mmHg) was “pulling his paw without vocalization”, the “anesthetic effect (righting reflex)” value (male Sprague-Dawley rats; Rat 2, 460 mg/kg, cyclodextrin 40% + Intralipid) was “loss of righting reflex” and the “anesthetic effect (righting reflex, eyelash reflex, hind paw pressure)” value (male Sprague-Dawley rats; Rat 3, 320 mg/kg, Intralipid + Ringer's Lactate) was “loss of righting and eyelash reflexes and inability to pull his hind paw in response to pressure applied to it”. For the same compound, the “anesthetic effect (righting reflex, eyelash reflex, hind paw pressure)” value (male Sprague-Dawley rats; Rat 4, 370 mg/kg, Intralipid + Ringer's Lactate) was “loss of righting and eyelash reflexes and inability to pull his hind paw in response to pressure applied to it” and the “concentration to which melatonin can be dissolved” value [5] was ≤ 300000 µg/mL.

With CC(C)c1cccc(C(C)C)c1O [propofol] the “estimated ED95 (and 95% CI) for loss” value (rats [2]) was 14.9 (6.4-34.9) mg/kg, the “effect … grip strength and eyelash reflex” value (rats [2]) was “progressive loss of righting reflex, grip strength and eyelash reflex” and the “time for which loss of righting reflex and grip strength was maximal” value (rats [4]) was 5 min. For the same compound, the “effect on paw withdrawal threshold” value (rats [4]) was “significant increase in paw withdrawal threshold of similar duration”, the “effect on righting reflex and grip strength” value (rats [4]) was “immediate loss of righting reflex and grip strength” and the “time by which loss” value (rats [4]) was ≤ 10 min.

In the case of CCCC(C)C1(CC)C(=O)NC(=S)NC1=O (stereo not drawn) [thiopental], the “estimated ED95 (and 95% CI) for loss” value (rats [2]) is reported as 23.8 (15.4-36.7) mg/kg, the “effect … grip strength and eyelash reflex” value (rats [2]) is reported as “progressive loss of righting reflex, grip strength and eyelash reflex” and the “time at which loss of righting reflex and grip strength was maximal” value (rats [4]; single i.v. bolus 20 mg/kg) is reported as 1 min. For the same compound, the “effect on paw withdrawal threshold” value (rats [4]) was “not accompanied by a change in paw withdrawal threshold”, the “effect on righting reflex and grip strength” value (rats [4]) was “immediate loss of righting reflex and grip strength” and the “time by which loss” value (rats [4]) was ≤ 15 min.
